Experimental data from patent publication US9278962B2 (Cytokinetics, Inc., priority 2011, dated 2016).

System: rabbit skeletal myofibrils (approximately 90% fast fibers)
Experiment: Activation of fast skeletal myofibrils (PUMA coupled-enzyme ATPase assay, AC1.4)
Type: biochemical
Settings: concentration at which the compound increased enzymatic activity by 40%, calcium at pCa25

Compound	Mean AC1.4 (Table 3)	Mean AC1.4 (Table 5)
Fc1cccnc1[C@]1(CNc2nnc(-c3cc(Br)ccc3Cl)s2)C[C@@H](F)C1 [5-(5-bromo-2-chlorophenyl)-N-(((trans)-3-fluoro-1-(3-fluoropyridin-2-yl)cyclobutyl)methyl)-1,3,4-thiadiazol-2-amine]	A (A=<1 uM)	
Cn1nc(NC2(c3ncccc3F)CCC2)nc1-c1cc(Br)ccc1F [5-(5-bromo-2-fluorophenyl)-N-(1-(3-fluoropyridin-2-yl)cyclobutyl)-1-methyl-1H-1,2,4-triazol-3-amine]		D (D=>20 uM)
Cn1nc(-c2cc(Br)ccc2F)nc1NC1(c2ncccc2F)CCC1 [5-(5-bromo-2-fluorophenyl)-N-(1-(3-fluoropyridin-2-yl)cyclobutyl)-2-methyl-2H-1,2,4-triazol-3-amine]		D (D=>20 uM)
Fc1ccc(Br)cc1-c1nnc(NC2(c3ncccc3F)CCC2)[nH]1 [5-(5-bromo-2-fluorophenyl)-N-(1-(3-fluoropyridin-2-yl)cyclobutyl)-4H-1,2,4-triazol-3-amine]		D (D=>20 uM)
CC(C)(CNc1nnc(-c2cc(Br)ccc2F)s1)c1ncccc1F [5-(5-bromo-2-fluorophenyl)-N-(2-(3-fluoropyridin-2-yl)-2-methylpropyl)-1,3,4-thiadiazol-2-amine]	A (A=<1 uM)	
CC(C)(Nc1nnc(-c2cc(Br)ccc2F)s1)c1ncccc1F [5-(5-bromo-2-fluorophenyl)-N-(2-(3-fluoropyridin-2-yl)propan-2-yl)-1,3,4-thiadiazol-2-amine]	B (B=1-10 uM)	
CC(C)(Nc1nnc(-c2cc(Br)ccc2F)o1)c1ccc(F)cc1 [5-(5-bromo-2-fluorophenyl)-N-(2-(4-fluorophenyl)propan-2-yl)-1,3,4-oxadiazol-2-amine]		B (B=1-10 uM)
Fc1ccc(Br)cc1-c1nnc(NCC2(c3ncccc3F)CCC2)s1 [5-(5-bromo-2-fluorophenyl)-N-((1-(3-fluoropyridin-2-yl)cyclobutyl)methyl)-1,3,4-thiadiazol-2-amine]	A (A=<1 uM)	
Fc1ccc(Br)cc1-c1nnc(NC[C@]2(c3ncccc3F)C[C@@H](F)C2)s1 [5-(5-bromo-2-fluorophenyl)-N-(((cis)-3-fluoro-1-(3-fluoropyridin-2-yl)cyclobutyl)methyl)-1,3,4-thiadiazol-2-amine]	A (A=<1 uM)	
Fc1ccc(Br)cc1-c1nnc(NC[C@]2(c3ncccc3F)C[C@H](F)C2)s1 [5-(5-bromo-2-fluorophenyl)-N-(((trans)-3-fluoro-1-(3-fluoropyridin-2-yl)cyclobutyl)methyl)-1,3,4-thiadiazol-2-amine]	A (A=<1 uM)	
Cc1ccc(Br)cc1-c1nnc(NC[C@]2(c3ncccc3F)C[C@@H](F)C2)s1 [5-(5-bromo-2-methylphenyl)-N-(((cis)-3-fluoro-1-(3-fluoropyridin-2-yl)cyclobutyl)methyl)-1,3,4-thiadiazol-2-amine]	A (A=<1 uM)	
Cc1ccc(Br)cc1-c1nnc(NC[C@]2(c3ncccc3F)C[C@H](F)C2)s1 [5-(5-bromo-2-methylphenyl)-N-(((trans)-3-fluoro-1-(3-fluoropyridin-2-yl)cyclobutyl)methyl)-1,3,4-thiadiazol-2-amine]	A (A=<1 uM)	
Cc1cc(Br)sc1-c1nnc(NC[C@]2(c3ncccc3F)C[C@H](F)C2)s1 [5-(5-bromo-3-methylthiophen-2-yl)-N-((3-fluoro-1-(3-fluoropyridin-2-yl)cyclobutyl)methyl)-1,3,4-thiadiazol-2-amine]	B (B=1-10 uM)	
Fc1cccnc1[C@]1(CNc2nnc(-c3ccc(Br)s3)s2)C[C@H](F)C1 [5-(5-bromothiophen-2-yl)-N-(((cis)-3-fluoro-1-(3-fluoropyridin-2-yl)cyclobutyl)methyl)-1,3,4-thiadiazol-2-amine]	C (C=10-20 uM)	
